Test results as given in article PMC2867956, “Interdomain Interactions Control Ca^2+-Dependent Potentiation in the Cation Channel TRPV4” (PLoS ONE, 2010).
Entries after “also recorded” stand apart in the source; their conditions may differ. No end group written: not given here.

What was measured:
TRPV4 C2 fragment [1] = experiment: AlphaScreen interdomain interaction with C2; type: binding, human; settings: 10 nM C2-biotin, N2-Flag 30 pM to 1.5 µM, N3 data not shown
From the text: (§1) First, we did a complementation experiment to test whether a CaM molecule that binds to the C2 fragment of TRPV4 through its C-lobe can form an additional interaction with another CaM binding domain thus forming a ternary complex. […] We used an AlphaScreen-based proximity assay (Fig. 2, Methods S1) in which the acceptor beads were coated with the C-terminal fragment C2-Flag, and the donor beads either with the N-terminal CaM binding peptide P2-biotin, or, as a negative control, with C2-biotin. The interaction between the proteins was measured in the presence of increasing CaM concentrations in 100 µM Ca^2+ or 1 mM EGTA (Fig. 3A).
In an AlphaScreen interaction experiment, donor and acceptor beads were incubated with 10 nM C2-biotin and N2-Flag at concentrations ranging from 30 pM to 1.5 µM, respectively (Fig. 3C).
(§2) Proteins were expressed in E. coli, affinity purified and biotinylated if applicable (for details see Methods S1). For protein interaction measurements, a proximity assay system based on the AlphaScreen technology (PerkinElmer) was used (see Methods S1). Briefly, streptavidin-coated AlphaScreen donor and anti-Flag acceptor beads at a final concentration of 16.7 µg/ml were incubated in a 384-well plate format (OptiPlate-384, PerkinElmer) with C2-GST-biotin or P2-biotin and the respective Flag-tagged interaction protein at concentrations of 10 nM, if not otherwise indicated. Assay buffer conditions were 50 mM Tris, pH 7.4, 100 mM KCl, and 0.1% BSA. After incubation for 90 min at room temperature, the AlphaScreen output signal was recorded in a Fusion alpha FP instrument (PerkinElmer) at 2 s reading time per well. AlphaScreen signals are given as mean±SEM in counts per second (cps) units.
The expression plasmids containing the cDNA for CaM or TRPV4 fragments in the pGEX-2TK vector (Amersham) or a modified derivative that contains an in-frame Flag epitope 5’ to the multiple cloning site were transformed into the BL21(DE3) Escherichia coli host, and protein expression was induced by 200 mg/ml IPTG at an OD600 of 0.6. […] The GST-Flag fusion proteins were eluted with 50 mM Tris, pH 8.5, 100 mM KCl, and 10 mM glutathione. […] The purity of all proteins was confirmed by SDS-polyacrylamide gel electrophoresis and Coomassie staining, and the protein concentration determined by the method according to Bradford using an albumin concentration standard. […]
To establish an improved interaction assay, that allows the quantification of protein interactions on a medium to high throughput scale, a commercially available proximity assay system based on the AlphaScreen (Amplified Luminescent Proximity Homogenous Assay) technology (PerkinElmer) was modified. […]

[2] = tested on: TRPV4 C terminus peptide library; experiment: Peptide library overlay, TRPV4 C terminus; type: binding, human; settings: 20-mer peptides on filter, 100 nM biotinylated protein
From the text: (0.31 MBTIF) Click here for additional data file.

CFP-TRPV4-YFP = settings: HEK293 cells, Ca^2+-containing buffer; 4α-PMA data not shown; concomitant increase in donor fluorescence
wt TRPV4 = experiment: Whole-cell patch clamp, wild type TRPV4; type: cell-based, human
From the text: (§3) (See Methods S1 for details).

TRPV4 mutant KRA = experiment: Whole-cell patch clamp, TRPV4 mutant KRA; settings: 4α-PMA 1 µM, nominally Ca^2+-free; -100 and +100 mV, p = 0.012 and 0.007; n = 5
Method: (§6) Patch clamp recordings were performed on HEK293 cells in the whole cell configuration. Cells were clamped at a potential of −20 mV, and current-voltage (I–V) relations were obtained from voltage ramps from −100 mV to +100 mV. The standard extracellular solution contained 140 mM NaCl, 5 mM CsCl, 2 mM CaCl2, 1 mM MgCl2, 10 mM glucose, and 10 mM HEPES (pH 7.4 with NaOH). In nominally Ca^2+-free solutions, Ca^2+ was omitted. The standard intracellular solution contained 110 mM cesium methanesulfonate, 25 mM CsCl, 2 mM MgCl2, 0.362 mM CaCl2, 1 mM EGTA, and 30 mM HEPES (pH 7.2 with CsOH) with a calculated [Ca^2+] of 100 nM.
(§7) Patch clamp recordings were performed on HEK293 cells in the whole cell configuration using an EPC10 amplifier and Pulse software (HEKA, Lamprecht, Germany). […] Cells were clamped at a potential of –20 mV, and current-voltage (I-V) relations were obtained from voltage ramps from –100 mV to +100 mV with a duration of 400 ms applied every 4 seconds. Ramp data were acquired with a sampling rate of 20 kHz after filtering at 4 kHz. […] The standard intracellular solution contained 110 mM cesium methanesulfonate, 25 mM CsCl, 2 mM MgCl2, 0.362 mM CaCl2, 1 mM EGTA, and 30 mM HEPES (pH 7.2 with CsOH) with a calculated [Ca^2+] of 100 nM (MaxChelator, Chris Patton, Stanford, USA). […]

TRPV4 mutant WIA = experiment: Whole-cell patch clamp, TRPV4 mutant WIA; settings: 4α-PMA 1 µM, nominally Ca^2+-free; -100 and +100 mV, p = 0.014 and 0.023; n = 8
Method: as §6, §7

[3] = molecular target: P5 peptide (TRPV4 C-terminal CaM binding site); experiment: Fluorescence polarization, binding of CaM and isolated CaM lobes to labeled P5; design: species or system human; settings: binding to fluorophore-labeled P5 at 100 µM Ca^2+; tracer 100 nM; pH 7.5
Method: We analyzed the properties of the complex between CaM and C-terminal fragments of the human TRPV4 ortholog, and investigated the structural determinants within the CaM molecule that are involved in binding.
Tracer peptides were synthesized and coupled to carboxyfluorescein (Dr. Sven Rothemund, Core unit peptide technologies, IZKF, Leipzig). Protein interaction experiments were performed in buffers containing 50 mM Tris, pH 7.5, 100 mM KCl, 0.1% BSA and calcium at the indicated concentrations. Calcium concentrations below 50 µM were buffered with HEDTA, EGTA or EDTA at a buffer concentration of 10 mM. CaM concentrations were 10 µM or as indicated; the tracer peptide concentration was 100 nM. Fluorescence anisotropy was measured in a 384-well black multititer plate (Fluotrac 200, Greiner) using a Fusion alpha FP instrument (PerkinElmer) at 1 s reading time per well. Fluorescence polarization (FP) was calculated according to: [drawing 1] with Ipar and Iperp as the fluorescence emission intensities in planes parallel and perpendicular to the excitation plane. FP signals are given as mean±SEM of triplicate measurements in milli-P (mP) units.

TRPV4 C2 fragment [4] = experiment: AlphaScreen-based CaM interaction assay with C2; type: binding, human
Method: as §2
The expression plasmids containing the cDNA for CaM or TRPV4 fragments in the pGEX-2TK vector (Amersham) or a modified derivative that contains an in-frame Flag epitope 5’ to the multiple cloning site were transformed into the BL21(DE3) Escherichia coli host, and protein expression was induced by 200 mg/ml IPTG at an OD600 of 0.6. […] The GST-Flag fusion proteins were eluted with 50 mM Tris, pH 8.5, 100 mM KCl, and 10 mM glutathione. The GST-fusion proteins intended for subsequent biotinylation were subjected to an additional wash step with 50 mM HEPES, pH 7.4, 100 mM KCl and eluted with 50 mM HEPES, pH 8.5, 100 mM KCl, and 10 mM glutathione. The purity of all proteins was confirmed by SDS-polyacrylamide gel electrophoresis and Coomassie staining, and the protein concentration determined by the method according to Bradford using an albumin concentration standard. Biotinylation was performed using a 10-fold molar excess of biotinamidocaproate N-hydroxysuccinimide ester (Sigma). After incubation at 4 °C for 12 h, the reaction was stopped by addition of a 10-fold molar excess of NH4Cl and unbound biotin ester removed by extensive dialysis against 50 mM Tris, pH 7.4, 100 mM KCl.
To establish an improved interaction assay, that allows the quantification of protein interactions on a medium to high throughput scale, a commercially available proximity assay system based on the AlphaScreen (Amplified Luminescent Proximity Homogenous Assay) technology (PerkinElmer) was modified. The assay principle had been originally developed as an enhanced immunoassay and initially termed luminescent oxygen channeling immunoassay (LOCI [1]). […] The resulting emission at a wavelength of 370 nm is further transformed by fluorophores within the bead into a final emission between 520 nm and 620 nm that can be detected by a photomultiplier. […]

TRPV4 [5] = experiment: Whole-cell patch clamp, effect of CaM/CaM mutant overexpression on Ca^2+-dependent TRPV4 current increase; type: cell-based, human
From the text: This mutant may bind and displace endogenous CaM, but, owing to the N-terminal mutation, cannot fully substitute for the wild type molecule.
as §3

wild type N2 fragment = experiment: AlphaScreen N-terminal homologous interaction, wild type N2; type: binding, human; settings: nominally Ca^2+-free buffers
Method: (§4) Proteins were expressed in E. coli, affinity purified and biotinylated if applicable (for details see Methods S1). For protein interaction measurements, a proximity assay system based on the AlphaScreen technology (PerkinElmer) was used (see Methods S1). […] Assay buffer conditions were 50 mM Tris, pH 7.4, 100 mM KCl, and 0.1% BSA. After incubation for 90 min at room temperature, the AlphaScreen output signal was recorded in a Fusion alpha FP instrument (PerkinElmer) at 2 s reading time per well. AlphaScreen signals are given as mean±SEM in counts per second (cps) units.

N2 mutant WIA = experiment: AlphaScreen N-terminal homologous interaction, N2 mutant WIA; type: binding, human; settings: nominally Ca^2+-free buffers
Method: as §4

TRPV4 [6] = experiment: FRET acceptor bleaching, full-length TRPV4 N and C termini in HEK293 cells; type: cell-based, human; settings: extrapolated donor increase at full acceptor photobleaching; unstimulated HEK293; n = 7 (CFP-TRPV4-YFP), 20 and 13 as printed 'respectively'; p<0.0001 versus control
From the text: as §3

P2/C2 complex = experiment: AlphaScreen competition, C2-Flag/P2-biotin complex; type: binding, human; settings: read-out: IC50, competition of P2/C2 complex; C2-Flag and P2-biotin; untagged competitor; AlphaScreen pH 7.4, 90 min room temperature
From the text: as §1
(§5) AlphaScreen acceptor and donor beads were coated with C2-Flag and either P2-biotin (Fig. 7D) or CaM-biotin at 100 µM Ca^2+ (Fig. 7E) and incubated with untagged C2 or N2 competitor proteins at the indicated concentrations. […] A similar finding was observed when the CaM/C2 interaction was subjected to competition by C2 or N2 (Fig. 7E).
Proteins were expressed in E. coli, affinity purified and biotinylated if applicable (for details see Methods S1). For protein interaction measurements, a proximity assay system based on the AlphaScreen technology (PerkinElmer) was used (see Methods S1). […] After incubation for 90 min at room temperature, the AlphaScreen output signal was recorded in a Fusion alpha FP instrument (PerkinElmer) at 2 s reading time per well. […]

N2 = experiment: Gel filtration, N2 dimerization; type: physicochemical, human; settings: non-denaturing, 50 mM sodium phosphate pH 7.0, 200 mM KCl
Method: Purified proteins or gel filtration standard (BioRad) were loaded onto a Bio-Sil 250 (BioRad) size exclusion chromatography column and eluted with a buffer containing 50 mM sodium phosphate, pH 7.0 and 200 mM KCl. The elution profile was recorded by continuous absorption measurement at 280 nm.

CaM/C2 complex = experiment: AlphaScreen competition, C2-Flag/CaM-biotin complex; type: binding, human; settings: C2-Flag and CaM-biotin at 100 µM Ca^2+; untagged competitor; AlphaScreen pH 7.4, 90 min room temperature
Method: as §5, §2
Proteins used for competition experiments were subjected to gel filtration into the assay buffer using a PD-10 column (Amersham).

Q: “N3: N-terminal TRPV4 fragment, residues 114-161, includes P2 (RHHSSDNKRWRKKIIEKQPQSPKAPAPQPPPILKVFNRPILFDIVSRG; UniProt Q9HBA0 114-161, looked up, fragment)” was tested. Which “interaction with C2” value (TRPV4 C2 fragment [1]) did it give?
A: Its value is “interdomain interaction could also be shown”.

Q: What about the “overlay binding site, C terminus library” value [2] of the same compound?
A: The value was “strong interaction was found with a region that corresponds to the CaM binding peptide P5”.

Q: For `CCCCCCCCCCCCCC(=O)O[C@@H]1[C@@H](C)[C@@]2(O)[C@@H](C=C(CO)C[C@@]3(O)C(=O)C(C)=C[C@@H]23)[C@@H]2C(C)(C)[C@]12OC(C)=O` [4α-PMA], which “change in FRET fluorescence on stimulation” value (CFP-TRPV4-YFP) is on record?
A: Its value is “transient decreases in the FRET”.

Q: What about the “current activated by 4α-PMA” value (wt TRPV4; 4α-PMA 1 µM, nominally Ca^2+-free, wild type, n = 9) of the same compound?
A: Its value is “slow, small increase in currents”.

Q: What about the “activation of TRPV4” value (wt TRPV4; nominally Ca^2+-free solutions, HEK293 cells) of the same compound?
A: Its value is “weak and slow”.

Q: What about the “current activated by 4α-PMA versus wild type” value (TRPV4 mutant KRA) of the same compound?
A: Its value is “Significantly larger currents; also recorded: significantly larger than the wild type”.

Q: What about the “current activated by 4α-PMA versus wild type” value (TRPV4 mutant WIA) of the same compound?
A: Its value is “Significantly larger currents; also recorded: significantly larger than the wild type”.

Q: calmodulin [CaM] was tested. Which Kd [3] did it give?
A: The Kd was 400 nM.

Q: And the EC50 (TRPV4 C2 fragment [4]; AlphaScreen, C2-biotin with CaM-Flag or mutant, 10 nM each, value is Ca^2+ concentration, 50 mM Tris pH 7.4, 100 mM KCl, 0.1% BSA, 90 min room temperature, n = 3 independent experiments in triplicate, read-out: EC50 Ca^2+ concentration for C2 interaction (half maximal binding))?
A: Its EC50 is 8800 ± 1000 nM.

Q: What about the “AlphaScreen signal of CaM/C2 in EGTA” value (TRPV4 C2 fragment [4]; CaM-biotin and C2-Flag in 1 mM EGTA) of the same compound?
A: Its value is “No signal was detected”.

Q: And the “Hill coefficient (common)” value (TRPV4 C2 fragment [4]; Ca^2+-dependence of C2 binding, common fit for CaM, CaM12 and CaM34, n = 3)?
A: Its value is 2.0.

Q: What about the “binding to TRPV4” value (TRPV4 C2 fragment [4]; Ca^2+-free buffers for CaM) of the same compound?
A: The value was “neither binds to CaM in Ca^2+-free buffers”.

Q: What about the “current increase upon addition of Ca^2+ on overexpression” value (TRPV4 [5]; HEK293 cells coexpressing TRPV4, 4α-PMA in Ca^2+-free bath, then 2 mM Ca^2+, +100 and -100 mV, CaM12 p = 0.013 and 0.007 compared to CaM overexpression) of the same compound?
A: The value was “slightly increased the TRPV4 response to Ca^2+, but the increase is not statistically significant”.

Q: And the “effect on spontaneous or 4α-PMA-activated currents” value (TRPV4 [5]; nominally Ca^2+-free solution, data not shown)?
A: The value was “had no effect on spontaneous currents, or currents activated by 4α-PMA”.

Q: What does the source list for “P2: N-terminal CaM binding peptide of TRPV4, residues 117-136”?
A: binding of P2 to wild type N2 (wild type N2 fragment): bound strongly; binding of P2 to N2 mutant WIA (N2 mutant WIA): bound strongly

Q: “C-V4-Y: TRPV4 with CFP and YFP fused to the N- and C termini” was tested. Which FRET efficiency (TRPV4 [6]) did it give?
A: Its FRET efficiency is 14.6±1.1.

Q: “N2: N-terminal TRPV4 fragment, residues 79-138 (VPNPIDLLESTLYESSVVPGPKKAPMDSLFDYGTYRHHSSDNKRWRKKIIEKQPQSPKAP; also: Flag tag; UniProt Q9HBA0 79-138, looked up, fragment)” was tested. Which “interaction with C2” value (TRPV4 C2 fragment [1]) did it give?
A: The value was “interdomain interaction could also be shown”.

Q: What about the IC50 (P2/C2 complex) of the same compound?
A: The IC50 was 166 nM.

Q: And the oligomeric state (N2)?
A: Its oligomeric state is “a single peak was detected at a size that corresponds to the dimeric form; also recorded: monophasic elution profile with an apparent molecular size that corresponds with a dimeric form of the protein”.

Q: What about the IC50 (CaM/C2 complex) of the same compound?
A: The IC50 was 522 nM.
